From PMC9596378, “Discovery and molecular basis of subtype-selective cyclophilin inhibitors” (Nature Chemical Biology, 2022) come the findings set out here.

As a reminder, the IC50 is the concentration that gives 50% inhibition.

One data set has as its target Cyp40 (Homo sapiens, UniProt Q08752). Briefly: Chymotrypsin coupled prolyl-isomerase assay. In a few lines: (§1)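 Steps: cyclophilin plus compound 5 min at 2–3 °C; α-chymotrypsin added, 5 min more; Suc-AAPF-AMC substrate in LiCl/trifluoroethanol injected and fluorescence followed 330 s. Finals: 5 nM enzyme, 25 µM chymotrypsin, 5 µM substrate, 0.25% DMSO.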
A further data set has as its system HeLa cells. The experiment in a line: Fluorescence microscopy of Cy5-conjugated compounds. Format: cell-based, human. Here is the method:
Cells were seeded into 96-well, black, clear-bottom, TC-treated plates, in DMEM supplemented with 10% FBS 24 h prior at a density where wells were ~80% confluent at the time of the experiment. Medium was removed and cells were then stained with 50 µL mixture containing Cy5-labeled compound (6 µM) in Kreb’s ringer solution HEPES buffered pH 7.2 (KRB), for 1 h at 37 °C. Then, 50 µL Hoechst 33342 (8 µM) and Mitotracker Green FM (0.1 µM) in KRB was added directly to wells containing cells and incubated for 15 min at 37 °C. Medium was removed and cells were washed twice with 100 µL KRB. Cells were then kept adherent to the wells in 100 µL KRB for imaging. Fluorescence microscopy was conducted on an Opera Phenix Plus High-Content Screening System, using Alexa 488, Alexa 647, and Hoescht 33342 channels. Images were analyzed using Harmony v.4.9.

In the next data set the target is T1, CypE (Homo sapiens, UniProt Q9UNP9).
T1 construct: PPIE (UniProtKB Entry Q9UNP9: residues 131–301); host or cells: E. coli BL21(DE3)
The experiment in a line: Chymotrypsin coupled prolyl-isomerase assay. Format: biochemical. The method, boiled down:
as §1

For the next data set, the target named is T2, CypC (Homo sapiens, UniProt P45877).
T2 construct: PPIC (UniProtKB Entry P45877: residues 24–212); host or cells: E. coli BL21(DE3)
The experiment in a line: Chymotrypsin coupled prolyl-isomerase assay. The data set is classed as biochemical. In a few lines: as §1

In a further data set the target is T3, NKTR (Homo sapiens, UniProt P30414).
T3 construct: NKTR (UniProtKB Entry P30414: residues 7–179); host or cells: E. coli BL21(DE3)
T3 sequence (P30414 7-179): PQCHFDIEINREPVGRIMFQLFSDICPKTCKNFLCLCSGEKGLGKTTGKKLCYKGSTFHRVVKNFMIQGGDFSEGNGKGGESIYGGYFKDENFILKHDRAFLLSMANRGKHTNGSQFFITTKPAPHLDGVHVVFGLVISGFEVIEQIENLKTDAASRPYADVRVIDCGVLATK
Briefly: Chymotrypsin coupled prolyl-isomerase assay. The data set is classed as biochemical.

The target of a further data set is T4, CypB (Homo sapiens, UniProt P23284).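 For CypB prolyl-isomerase raw dose-response reading (Fig. 6c): observed rate constant per well from one-phase association fit in s−1.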
T4 construct: PPIB (UniProtKB Entry P23284: residues 34–216); His6 with TEV site (2BT vector leader) (N); made in house; host or cells: E. coli BL21(DE3)
Briefly: biochemical. The method, boiled down:
as §1

Setting [1] is: read-out: Wild-Type Cyclophilin Prolyl Isomerase Inhibition IC50 Values, Cyp40, wild-type Cyp40.
Where [2] appears, read: wild-type CypE, read-out: Wild-Type Cyclophilin Prolyl Isomerase Inhibition IC50 Values, CypE.
Setting [3] is: wild-type CypC, read-out: Wild-Type Cyclophilin Prolyl Isomerase Inhibition IC50 Values, CypC.
[4] abbreviates: wild-type NKTR, read-out: Wild-Type Cyclophilin Prolyl Isomerase Inhibition IC50 Values, NKTR.
[5] abbreviates: wild-type CypB, read-out: Wild-Type Cyclophilin Prolyl Isomerase Inhibition IC50 Values, CypB.
Setting [6] is: prolyl-isomerase inhibition, 5 nM cyclophilin, read-out: IC50 NKTR.
[7] abbreviates: Wild-Type Cyclophilin Prolyl Isomerase Inhibition IC50 Values, Cyp40, wild-type Cyp40.

Molecules are shown by their SMILES. Values joined by “and” are separate entries in the source; they are usually repeats but may differ in a detail not shown here. Equal entries are not always repeated. Where two headings read alike, the source gives them in different places.
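Throughout, for Cyp40 prolyl-isomerase raw dose-response reading (Fig. 6c): observed rate constant per well from one-phase association fit in s−1.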
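Throughout, for NKTR prolyl-isomerase raw dose-response reading (Fig. 6c): Per-well observed rate constant from one-phase association fit in s−1.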

Cyp40, sequence (Q08752 1-183): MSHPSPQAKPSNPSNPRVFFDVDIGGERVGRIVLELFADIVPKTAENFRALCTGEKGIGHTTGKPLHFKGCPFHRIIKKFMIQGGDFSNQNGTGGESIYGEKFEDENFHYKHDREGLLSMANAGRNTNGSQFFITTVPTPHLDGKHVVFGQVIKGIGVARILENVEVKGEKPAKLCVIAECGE
T2 sequence (P45877 24-212): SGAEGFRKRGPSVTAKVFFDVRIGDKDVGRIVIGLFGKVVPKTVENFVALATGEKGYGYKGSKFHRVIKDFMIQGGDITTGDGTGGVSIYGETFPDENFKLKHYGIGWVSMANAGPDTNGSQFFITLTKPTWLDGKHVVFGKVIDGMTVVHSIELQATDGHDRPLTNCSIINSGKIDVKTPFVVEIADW
T1 sequence (Q9UNP9 131-301): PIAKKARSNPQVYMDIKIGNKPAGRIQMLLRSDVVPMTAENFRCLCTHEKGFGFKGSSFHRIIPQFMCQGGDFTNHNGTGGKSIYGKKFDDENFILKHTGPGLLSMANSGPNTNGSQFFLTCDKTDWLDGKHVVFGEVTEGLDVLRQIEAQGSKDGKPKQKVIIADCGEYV
T4 sequence (P23284 34-216): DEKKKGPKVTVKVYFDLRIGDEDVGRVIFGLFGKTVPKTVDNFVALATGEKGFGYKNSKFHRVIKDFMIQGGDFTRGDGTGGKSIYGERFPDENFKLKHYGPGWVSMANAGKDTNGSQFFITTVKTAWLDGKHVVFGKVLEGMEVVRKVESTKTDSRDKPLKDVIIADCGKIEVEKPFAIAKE
Protocol for NKTR: Adapting a previously described protocol[51], with an Agilent Bravo Velocity 11 with a 384ST head, 90 µL assay buffer (25 mM HEPES pH 7.3, 100 mM NaCl, 0.01% Triton X-100) containing 5.28 nM cyclophilin was added into a flat, clear-bottom, black 384-well plate pre-chilled in a Corning CoolBox at 2–3 °C. Five microliters of compound pre-dissolved in 5% DMSO/assay buffer was then added to appropriate wells and incubated at 2–3 °C for 5 min. Five microliters of 0.5 mM α-chymotrypsin from bovine pancreas (Type II, lyophilized powder, Millipore-Sigma) in 20% 1 mM HCl/Assay Buffer was then added to each well and incubated at 2–3 °C for 5 min. […] Using the internal liquid handling system of the FLIPR, 1 µL 0.5 mM Suc-AAPF-AMC (Chymotrypsin Substrate II, Millipore-Sigma) dissolved in 0.55 M LiCl/2,2,2-trifluoroethanol was added to each well, which was then mixed for 5 s, followed by immediate fluorescence measurements every 1 s for 330 s using a 360–380 nm excitation LED module and a 400–460 nm emission filter. Final concentrations of the plate include 5 nM cyclophilin, 0.25% DMSO, 25 µM α-chymotrypsin, 5 µM Suc-AAPF-AMC. Raw fluorescence data was analyzed by non-linear regression analysis with Prism v.9 by fitting one-phase association curves to each well. Analyses were halted after the calculated maximum fluorescent value owing to observed fluorescent bleaching during the sustained fluorescent plateau. Rate constants calculated for each well (s^−1) were then normalized to substrate only (no prolyl-isomerase) and enzyme + substrate only controls. IC50 values were calculated as the value at which 50% inhibition was achieved on the non-linear regression fitted curve of each compound.

Take `C[N+]1=C(C=CC=CC=C2N(CCCCCC(=O)NCCNC(=O)C3CCNC(=O)C=CC(=O)N4CCCC(Cc5ccccc5)(C4)C(=O)NC(Cc4ccc(-c5ccc(CC(C(=O)O)C(=O)O)cc5)cc4)C(=O)NCc4ccccc4CC(=O)N3)c3ccccc3C2(C)C)C(C)(C)c2ccccc21` (stereo not shown) [*B52-Cy5]: the IC50 at Cyp40 (setting [1]), at CypE (setting [2]), at CypC (setting [3]), on NKTR (setting [4]) and at CypB (setting [5]) was over 10 µM each time. In the data set with HeLa cells, the “plasma membrane permeability / mitochondrial localization (in words)” value is “poor”.

With `C[N+]1=C(C=CC=CC=C2N(CCCCCC(=O)NCCNC(=O)C3CCNC(=O)C=CC(=O)N4CCCC(Cc5ccccc5)(C4)C(=O)NC(Cc4ccc(-c5ccc(C(CC(=O)O)CC(=O)O)cc5)cc4)C(=O)NCc4ccccc4CC(=O)N3)c3ccccc3C2(C)C)C(C)(C)c2ccccc21` (stereo not shown) [*B53-Cy5], the IC50 at Cyp40 (setting [1]), at CypE (setting [2]), at CypC (setting [3]), at NKTR (setting [4]) and on CypB (setting [5]) was over 10 µM in each case. Also, in the data set on HeLa cells, the “plasma membrane permeability / mitochondrial localization (in words)” value is “poor”.

Consider `C[N+]1=C(C=CC=CC=C2N(CCCCCC(=O)NCCNC(=O)C3CCNC(=O)C=CC(=O)N4CCCC(Cc5ccccc5)(C4)C(=O)NC(Cc4ccc(-c5ccc(CC(C(=O)O)C(=O)O)cc5)cc4)C(=O)NCc4ccccc4CC(=O)N3)c3ccccc3C2(C)C)C(C)(C)c2ccccc21` (stereo not shown) [Compound B52-Cy5], for which the IC50 at Cyp40 (setting [1]) was over 10 µM; at CypE (setting [2]), 1 µM; at CypC (prolyl-isomerase inhibition, 5 nM cyclophilin, read-out: IC50 CypC), about 5 µM; at CypC (setting [3]) it was 5 µM; at NKTR (setting [6]), about 7 µM; at NKTR (setting [4]) it was 7 µM. At CypB (setting [5]), the IC50 is 0.4 µM. In the data set on HeLa cells, the “plasma membrane permeability / mitochondrial localization (in words)” value is “poor and did not observe efficient plasma membrane permeability”.

`NC(=O)C1CCNC(=O)C=CC(=O)N2CCCC(Cc3ccccc3)(C2)C(=O)NC(Cc2ccc(-c3ccc(C=O)c(B(O)O)c3)cc2)C(=O)NCc2ccccc2CC(=O)N1` (stereo not shown) [Compound C3A]: the “Cyp40 prolyl-isomerase raw dose-response reading (Fig. 6c)” value is 0.0614 and 0.06993 and 0.05711 on Cyp40 (Dose 0.00457247 µM); 0.05865 and 0.05903 and 0.06506 on Cyp40 (Dose 0.0137174 µM); 0.05035 and 0.06856 and 0.04615 at Cyp40 (Dose 0.0411523 µM); 0.06664 and 0.05611 and 0.06364 on Cyp40 (Dose 0.123457 µM); 0.05889 and 0.05946 and 0.05108 on Cyp40 (Dose 0.37037 µM); 0.05961 and 0.05287 and 0.0489 at Cyp40 (Dose 1.11111 µM). The “Cyp40 prolyl-isomerase raw dose-response reading (Fig. 6c)” value on Cyp40 (Dose 3.33333 µM) was 0.034 and 0.04378 and 0.03695; at Cyp40 (Dose 10 µM), 0.03483 and 0.03698 and 0.03412. Also, the IC50 at Cyp40 (IC50 Cyp40, Independent replicate 1) is 3 ± 1 µM; at Cyp40 (IC50 Cyp40, Independent replicate 2), 1.4 ± 0.5 µM; at Cyp40 (IC50 Cyp40, Independent replicate 3) it was 1.4 ± 0.3 µM; against Cyp40 (IC50 Cyp40, Independent replicate 4), 1.9 ± 0.5 µM; at Cyp40 (setting [7]), 1.8 µM; on CypE (Independent replicate 1, read-out: IC50 CypE), 0.013 ± 0.003 µM. For the same molecule, the IC50 on CypE (Independent replicate 2, read-out: IC50 CypE) amounted to 0.018 ± 0.006 µM; on CypE (Independent replicate 3, read-out: IC50 CypE), 0.009 ± 0.002 µM; on CypE (Independent replicate 4, read-out: IC50 CypE), 0.012 ± 0.004 µM; at CypE (prolyl-isomerase inhibition, 5 nM cyclophilin, read-out: IC50 CypE), 0.013 ± 0.004 µM; on CypE (prolyl-isomerase inhibition, read-out: IC50 CypE) it was 0.013 µM; at CypE (setting [2]), 0.013 µM. Besides, the IC50 at CypC (Independent replicate 1, read-out: IC50 CypC) is over 10 µM; at CypC (Independent replicate 2, read-out: IC50 CypC) it was 15 ± 4 µM; on CypC (Independent replicate 3, read-out: IC50 CypC), 20 ± 10 µM; on CypC (Independent replicate 4, read-out: IC50 CypC), 19 ± 9 µM; on CypC (setting [3]), 17 µM; at NKTR (Independent replicate 1, read-out: IC50 NKTR), over 10 µM. Besides, the IC50 on NKTR (Independent replicate 2, read-out: IC50 NKTR) was about 30 µM; at NKTR (Independent replicate 3, read-out: IC50 NKTR) it was about 30 µM; at NKTR (Independent replicate 4, read-out: IC50 NKTR), about 40 µM; on NKTR (setting [4]), 33 µM; at CypB (Independent replicate 1, read-out: IC50 CypB), about 3 µM; at CypB (Independent replicate 2, read-out: IC50 CypB), 7 ± 3 µM. Besides, the IC50 on CypB (Independent replicate 3, read-out: IC50 CypB) stood at 3 ± 1 µM; at CypB (Independent replicate 4, read-out: IC50 CypB), 3 ± 2 µM; at CypB (setting [5]), 4 µM. Moreover, on CypE, the “higher CypE inhibition potency of C3A over C5A” value is reported as 75 fold. Further, the “selectivity for CypE over CypA” value on CypE is given as over 100 fold. Besides, the “selectivity for CypE over the other cyclophilins screened” value on CypE (prolyl-isomerase IC50) is 30- to 4,000 fold. Moreover, the “CypC prolyl-isomerase raw dose-response reading (Fig. 6c)” value on CypC (Dose 0.00457247 µM) was 0.03895 and 0.0375; on CypC (Dose 0.0137174 µM) it was 0.04174 and 0.04247 and 0.04306; at CypC (Dose 0.0411523 µM) it was 0.05121 and 0.04011 and 0.04386; on CypC (Dose 0.123457 µM) it was 0.05033 and 0.03342 and 0.04085; at CypC (Dose 0.37037 µM), 0.03932 and 0.03966 and 0.05738; on CypC (Dose 1.11111 µM), 0.0536 and 0.03667 and 0.04316. Further, the “CypC prolyl-isomerase raw dose-response reading (Fig. 6c)” value on CypC (Dose 3.33333 µM) is 0.03577 and 0.0377 and 0.04529; at CypC (Dose 10 µM), 0.03905 and 0.04054 and 0.0318. Also, the “NKTR prolyl-isomerase raw dose-response reading (Fig. 6c)” value is 0.03021 and 0.03304 and 0.03422 on NKTR (Dose 0.00457247 µM); 0.0282 and 0.04075 and 0.02833 on NKTR (Dose 0.0137174 µM); 0.03114 and 0.03658 and 0.02835 at NKTR (Dose 0.0411523 µM); 0.03167 and 0.03382 and 0.0302 on NKTR (Dose 0.123457 µM); 0.03191 and 0.03367 and 0.02844 on NKTR (Dose 0.37037 µM); 0.03612 and 0.0297 and 0.03587 on NKTR (Dose 1.11111 µM). For the same molecule, the “NKTR prolyl-isomerase raw dose-response reading (Fig. 6c)” value at NKTR (Dose 3.33333 µM) was 0.03487 and 0.03208 and 0.0346; on NKTR (Dose 10 µM) it was 0.02874 and 0.02696 and 0.02891. Besides, the “CypB prolyl-isomerase raw dose-response reading (Fig. 6c)” value on CypB (Dose 0.00114312 µM) was 0.06934 and 0.06783 and 0.08183; on CypB (Dose 0.00342936 µM), 0.07621 and 0.06975 and 0.07172; on CypB (Dose 0.0102881 µM), 0.07116 and 0.04746 and 0.08093; at CypB (Dose 0.0308642 µM), 0.07891 and 0.06745 and 0.0815; on CypB (Dose 0.0925926 µM), 0.06054 and 0.05873 and 0.07182; on CypB (Dose 0.277778 µM), 0.07925 and 0.05977 and 0.05725. For the same molecule, the “CypB prolyl-isomerase raw dose-response reading (Fig. 6c)” value is 0.07516 and 0.05333 and 0.06224 on CypB (Dose 0.833333 µM); 0.05113 and 0.04833 and 0.05428 on CypB (Dose 2.5 µM).

For the molecule `NCCOCCNC(=O)C1CCNC(=O)C=CC(=O)N2CCCC(C2)C(=O)NC(Cc2ccco2)C(=O)NCc2ccccc2CC(=O)N1` (stereo not shown) [JOMBt], the IC50 is 19 µM against Cyp40 (setting [7]); 23 µM at CypE (setting [2]); 23 µM at CypC (setting [3]); about 60 µM on NKTR (setting [6]); 60 µM on NKTR (setting [4]); 5 µM at CypB (setting [5]).
